Assay results reported in patent US20250170141A1, “MRGPRX2 MODULATORS AND RELATED METHODS OF TREATMENT” (Escient Pharmaceuticals, Inc., priority 2023, published 2025).
In brackets after ≈: the same amount, converted by molar mass. Read-outs that look alike come from different tables or passages of the source.

Tests used:
[1] = Mouse Pharmacokinetic Studies (50 mg/kg oral gavage, plasma LC-MS/MS); assay type: in vivo; conditions: male C57BL/6 mice, non-fasted
Experimental: Compounds were formulated in 5% DMSO, 5% Solutol, and 90% PBS without Ca and Mg (pH 7.4) at a concentration of […]. Male C57BL/6 mice (n=6/compound) were administered a 50 mg/kg dose of each compound by oral gavage under a non-fasted condition. Blood samples were collected via the Submandibular vein onto K2-EDTA at 0.5, 1, 2, 4, 8 and 24 hours after dosing, and plasma was prepared and stored at −80° C. until analysis. Plasma sample preparation for analysis was done by protein precipitation using acetonitrile (including Verapamil as an internal standard) followed by centrifugation. Compound concentrations were determined in extracted plasma using LC-MS/MS relative to a 12-point standard curve covering the 1 to 4000 nM range. Non-compartmental analysis using Phoenix WinNonlin was used to estimate pharmacokinetic parameters including area under the curve, clearance, and half-life. The administered dose was confirmed by analysis of residual dosing material by UPLC-UV relative to a single point calibration sample.

Human LAD2 cells = assay: Mast Cell Beta-Hexosaminidase Release Assay (LAD2 cells, 500 nM Cortistatin-14); assay type: cell-based; conditions: read-out: MRGPRX2 Antagonist Activity
Experimental: Human LAD2 cells (NIH) were maintained in an incubator at 37° C. with 5% CO2 and cultured in StemPro-34 serum-free media (Gibco 10639011) supplemented with 2 mM L-glutamine, 100 U/ml penicillin, […] streptomycin and 100 ng/ml SCF (Invitrogen PEP0860), at a concentration of 2-5×10^5 cells/mL, with hemidepletion every 1-2 weeks.
Cells were transferred to SCF-Free medium at 2.5×10^5 cells/mL and kept in an incubator overnight. On the day of the assay, cells were washed twice in Assay Buffer (final concentrations 10 mM HEPES, 137 mM NaCl, 5.6 mM D-glucose, 2.7 mM KCl, 1 mM MgCl, 1.8 mM CalCl2, 0.4 mM Na2HPO4·7H2O, 0.04% BSA, pH=7.4) and plated in a 96-well v-bottom plate at 20,000 cells per well in 80 μL Assay Buffer. Antagonist compounds solubilized at 10 mM in DMSO were diluted in Assay Buffer to 10× final desired concentrations as a 10-point curve (10 μM final top concentration with 1:3 serial dilutions) and 10 μL added per well. Plates were then incubated for 1 hour at 37° C. Agonists were diluted in Assay Buffer to 10× desired concentrations and 10 μL of the appropriate agonist added to each well. The final concentration of Cortistatin-14 (Tocris 3374) used in antagonist assays was 500 nM. Final concentrations of DMSO were kept consistent across the plate. Plates were then incubated in a warm air oven for 30 minutes at 37° C., followed by centrifugation at 4° C. for 5 minutes at 450×g. 50 μL supernatant from each well was then transferred to a 96-well flat bottom plate containing 100 μL substrate solution per well (3.5 mg/mL p-Nitrophenyl-N-acetyl-o-D-glucosaminide (Sigma 487052) in Citrate Buffer containing a final concentration of 40 mM Citric Acid, 20 mM Na2HPO4·7H2O, pH=4.5). To the cell pellets left in the remaining assay buffer, 150 μL 0.1% Triton-X-100 was then added to each well, resuspended by pipetting up and down, and 50 μL cell lysates transferred to a second 96-well flat bottom plate containing 100 μL substrate solution per well. Plates containing transferred supernatant and cell lysates were then incubated in a warm air oven for 90 minutes at 37° C. After incubation, 50 μL of 400 mM Glycine buffer (pH 10.7) was added into each well and the plate was read on a Molecular Devices SpectraMax iD5 plate reader (absorbance at 405 nm with reference filter at 620 nm). After background subtraction, the percentage degranulation (percent beta-hexosaminidase release) was calculated as 100×(supernatant values)/(supernatant+lysate values), followed by analysis using GraphPad Prism software to calculate an IC50 value for each compound.
The activity ranges are denoted as follows: “+++++” denotes antagonist activity <100 nM; “++++” denotes antagonist activity between 100 and 500 nM; “+++” denotes activity between 501 and 1000 nM; “++” denotes activity between 1001 and 2500 nM; and “+” denotes activity >2500 nM.

[2] = Solubility Studies in FaSSIF, FeSSIF, FaSSGF (24 hours, room temperature, UPLC-UV); assay type: physicochemical; conditions: kinetic from dmso stock, 24 hours at room temperature
Experimental: Media according to Biorelevant Media protocols was prepared. 10 μL of 10 mM in DMSO stock solutions of test compounds was added to 96-well deep plate. 490 μL of FaSSIF, FeSSIF, or FaSSGF was then added into appropriate wells of 96-well deep plate. The plate was vortexed for 2 minutes then placed on a plate shaker for 24 hours at room temperature. The plate was centrifuged for 20 minutes, then supernatant was collected and filtered with […] syringe filter into UPLC vials for injection into UPLC-UV system. Concentration was calculated with a 3-point standard curve.

human MRGPRX2 = target: T1, human MRGPRX2 (Homo sapiens, UniProt Q96LB1); assay: MRGPRX2 activity: IP-One Gq HTRF assay in CHO cells, antagonism versus 0.3 uM Cortistatin-14; assay type: cell-based; conditions: versus 0.3 uM Cortistatin-14 agonist, CHO cells expressing human MRGPRX2, read-out: MRGPRX2 Antagonist Activity
T1 construct: expressed in transfected cells; host or cells: CHO cells, stably transfected (G418 and Hygromycin B selection)
T1 sequence (Q96LB1 1-330): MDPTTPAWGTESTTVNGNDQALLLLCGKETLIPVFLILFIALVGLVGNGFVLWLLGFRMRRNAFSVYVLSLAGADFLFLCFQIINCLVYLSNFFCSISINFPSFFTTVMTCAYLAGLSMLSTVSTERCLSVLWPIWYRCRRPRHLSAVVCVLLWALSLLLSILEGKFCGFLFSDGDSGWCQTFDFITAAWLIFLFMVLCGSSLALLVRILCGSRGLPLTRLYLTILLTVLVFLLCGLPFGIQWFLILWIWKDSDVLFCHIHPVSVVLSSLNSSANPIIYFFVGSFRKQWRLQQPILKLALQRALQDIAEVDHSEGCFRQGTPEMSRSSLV
Outline: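 CHO cells stably expressing human MRGPRX2 were treated with a 10-point compound curve (30 uM top, 1:3) plus 0.3 μM Cortistatin-14 in LiCl-containing Tris buffer, pH 8. Incubation was 1 h at 37 °C then 1 h at room temperature; IP-1 was detected by HTRF and IC50 came from the HTRF ratio.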

[3] = male, C57BL/6, mouse, po, 50 mg/kg
[4] = Homo sapiens, LAD2, Mast Cell Beta-Hexosaminidase Release Assay
[5] = fassgf or other biorelevant, solubility in FaSSGF, read-out: FaSSGF
[6] = solubility in FaSSIF, read-out: FaSSIF
[7] = solubility in FeSSIF, read-out: FeSSIF
[8] = Mast Cell Beta-Hexosaminidase Release Assay

SMILES	TBC [1] [mL/min/kg]	Cmax [1, 3] [µM]	half-life [1, 3] [min]	IC50 (Human LAD2 cells; [4]) [nM]	solubility kinetic at 24 h [2, 5] [µM]	solubility kinetic at 24 h [2, 6] [µM]	solubility kinetic at 24 h [2, 7] [µM]	IC50 (human MRGPRX2) [nM]	TBC ([1]; 50 mg/kg) [mL/min/kg]	IC50 (Human LAD2 cells; [8]) [nM]	Cmax ([1]; 50 mg/kg) [µM]	T1/2 ([1]; 50 mg/kg) [h]
CC(c1ccccc1F)c1c(F)ccc2c1NC(NCc1ncccc1F)=NS2(=O)=O (stereo not shown) [Compound 9-1, 6-fluoro-5-(1-(2-fluorophenyl)ethyl)-3-(((3-fluoropyridin-2-yl)methyl)amino)-4H-benzo[e][1,2,4]thiadiazine 1,1-dioxide]	13	8.7	108	< 100	19 (≈ 8.48 µg/mL)	114 (≈ 50.9 µg/mL)	74 (≈ 33 µg/mL)	< 100	–	–	–	–
CC(c1ccccc1F)c1c(F)ccc2c1NC(NCc1cccc(F)n1)=NS2(=O)=O (single isomer, unassigned) [Compound 10-2B]	–	4.4	138	–	11 (≈ 4.91 µg/mL)	162 (≈ 72.3 µg/mL)	186 (≈ 83 µg/mL)	< 100	27	< 100	–	–
CC(c1ccc(F)cc1)c1c(F)ccc2c1NC(NCc1ncccc1F)=NS2(=O)=O (single isomer, unassigned) [Compound 10-4B]	–	–	–	–	3 (≈ 1.34 µg/mL)	23 (≈ 10.3 µg/mL)	37 (≈ 16.5 µg/mL)	< 100	12	< 100	10	2.2
O=S1(=O)N=C(NCc2ncccc2F)Nc2c1ccc(F)c2Oc1ccccc1Cl [Compound 2-1, 5-(2-chlorophenoxy)-6-fluoro-3-(((3-fluoropyridin-2-yl)methyl)amino)-4H-benzo[e][1,2,4]thiadiazine 1,1-dioxide]	8.8	11	168	100 to 500	< 12.5	< 12.5	< 12.5	< 100	–	–	–	–
O=S1(=O)N=C(NCc2ncccc2F)Nc2c(Oc3ccccc3Cl)cc(F)cc21 [Compound 1-264, 5-(2-chlorophenoxy)-7-fluoro-3-(((3-fluoropyridin-2-yl)methyl)amino)-4H-benzo[e][1,2,4]thiadiazine 1,1-dioxide]	32	1.1	228	< 100	< 12.5	< 12.5	< 12.5	< 100	–	–	–	–
CC(c1ccccc1F)c1c(F)ccc2c1NC(NCc1ncccc1F)=NS2(=O)=O (single isomer, unassigned) [Compound 10-1B]	–	–	–	–	61 (≈ 27.2 µg/mL)	133 (≈ 59.4 µg/mL)	200 (≈ 89.3 µg/mL)	< 100	9	< 100	14	1.8
C[C@@H](c1ccccc1F)c1c(F)c(F)cc2c1NC(NCc1ncccc1F)=NS2(=O)=O [Compound 10-6A, (S)-6,7-difluoro-5-(1-(2-fluorophenyl)ethyl)-3-(((3-fluoropyridin-2-yl)methyl)amino)-4H-benzo[e][1,2,4]thiadiazine 1,1-dioxide]	11	11	126	< 100	27 (≈ 12.5 µg/mL)	30 (≈ 13.9 µg/mL)	178 (≈ 82.7 µg/mL)	< 100	–	–	–	–
CC(c1ccccc1F)c1c(F)ccc2c1NC(NCc1cccc(F)c1)=NS2(=O)=O (single isomer, unassigned) [Compound 10-5B]	–	–	–	–	< 3.1	158 (≈ 70.4 µg/mL)	136 (≈ 60.6 µg/mL)	< 100	12	< 100	7.1	2.5
